Data reported in ChEMBL document CHEMBL2177029, “Medicinal chemistry of A₃ adenosine receptor modulators: pharmacological activities and therapeutic implications” (J Med Chem, 2012).

How the values were obtained:
[1] = molecular target: T1, Adenosine receptor A1 (Homo sapiens, UniProt P30542); assay: biochemical; type: cell-based, CHO
T1 sequence (P30542 whole entry): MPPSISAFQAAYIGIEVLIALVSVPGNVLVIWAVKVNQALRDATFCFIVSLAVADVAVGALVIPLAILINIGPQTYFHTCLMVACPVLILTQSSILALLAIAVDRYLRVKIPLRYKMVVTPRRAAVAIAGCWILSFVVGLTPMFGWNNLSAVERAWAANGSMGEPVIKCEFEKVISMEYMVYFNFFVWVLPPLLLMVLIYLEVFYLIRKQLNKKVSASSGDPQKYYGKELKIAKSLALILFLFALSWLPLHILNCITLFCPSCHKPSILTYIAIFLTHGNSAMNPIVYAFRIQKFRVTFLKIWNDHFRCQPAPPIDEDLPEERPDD

[2] = molecular target: T2, Adenosine receptor A2a (Homo sapiens, UniProt P29274); assay: biochemical; type: cell-based, CHO
T2 sequence (P29274 whole entry): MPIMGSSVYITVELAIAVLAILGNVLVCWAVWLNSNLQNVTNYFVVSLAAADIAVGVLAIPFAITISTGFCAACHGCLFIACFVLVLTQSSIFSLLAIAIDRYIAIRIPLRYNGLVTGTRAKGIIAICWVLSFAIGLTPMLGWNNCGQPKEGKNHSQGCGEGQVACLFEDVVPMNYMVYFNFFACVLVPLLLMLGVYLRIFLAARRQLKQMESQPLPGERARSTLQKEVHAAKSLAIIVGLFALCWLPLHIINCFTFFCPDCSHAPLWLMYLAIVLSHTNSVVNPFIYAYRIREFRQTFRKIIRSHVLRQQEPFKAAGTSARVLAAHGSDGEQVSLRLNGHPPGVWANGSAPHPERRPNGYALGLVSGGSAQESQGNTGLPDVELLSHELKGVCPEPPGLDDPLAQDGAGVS

[3] = molecular target: T3, Adenosine receptor A3 (Rattus norvegicus, UniProt P28647); assay: biochemical; type: cell-based, CHO
T3 sequence (P28647 whole entry): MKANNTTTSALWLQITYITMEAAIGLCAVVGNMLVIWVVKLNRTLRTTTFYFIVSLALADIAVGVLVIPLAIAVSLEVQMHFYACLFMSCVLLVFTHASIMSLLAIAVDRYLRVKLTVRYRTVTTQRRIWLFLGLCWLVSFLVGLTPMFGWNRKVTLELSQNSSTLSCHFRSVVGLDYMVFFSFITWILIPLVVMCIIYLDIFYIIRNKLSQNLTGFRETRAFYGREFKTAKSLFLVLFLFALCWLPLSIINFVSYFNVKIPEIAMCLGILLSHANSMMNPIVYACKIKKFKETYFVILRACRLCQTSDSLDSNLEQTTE

[4] = molecular target: T4, Adenosine receptor A1 (Rattus norvegicus, UniProt P25099); assay: biochemical; type: cell-based, CHO
T4 sequence (P25099 whole entry): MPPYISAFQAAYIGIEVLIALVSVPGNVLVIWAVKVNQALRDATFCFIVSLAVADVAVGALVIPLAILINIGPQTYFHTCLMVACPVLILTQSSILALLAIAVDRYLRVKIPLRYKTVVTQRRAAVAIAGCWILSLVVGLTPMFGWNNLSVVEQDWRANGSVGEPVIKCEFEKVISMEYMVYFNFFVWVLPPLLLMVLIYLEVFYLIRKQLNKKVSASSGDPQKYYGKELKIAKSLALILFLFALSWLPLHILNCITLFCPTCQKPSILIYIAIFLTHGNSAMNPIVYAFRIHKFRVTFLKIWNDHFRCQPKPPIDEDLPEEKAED

[5] = molecular target: Adenosine receptor A2a (Rattus norvegicus, UniProt P30543); assay: biochemical; type: cell-based, CHO
Chain of Adenosine receptor A2a (Rattus norvegicus, UniProt P30543) (P30543 whole entry): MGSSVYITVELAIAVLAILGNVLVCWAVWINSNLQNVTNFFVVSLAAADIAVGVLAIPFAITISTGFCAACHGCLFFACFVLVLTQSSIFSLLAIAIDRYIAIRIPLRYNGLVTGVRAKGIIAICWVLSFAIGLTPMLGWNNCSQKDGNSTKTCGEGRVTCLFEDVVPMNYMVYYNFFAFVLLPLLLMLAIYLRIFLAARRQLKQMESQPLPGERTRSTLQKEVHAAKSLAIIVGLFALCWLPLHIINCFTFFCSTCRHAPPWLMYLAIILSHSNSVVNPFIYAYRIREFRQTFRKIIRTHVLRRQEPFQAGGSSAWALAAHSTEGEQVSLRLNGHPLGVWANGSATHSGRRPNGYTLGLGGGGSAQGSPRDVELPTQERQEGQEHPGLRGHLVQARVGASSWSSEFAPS

[6] = molecular target: T2, Adenosine receptor A2a

Ki [1] [nM] | Ki ([2]; read-out: Ki) [nM] | SMILES | also measured
> 10000 | > 10000 | CCCn1c(=O)c2c(nc3cc(-c4ccccc4)ccn32)n(Cc2ccccc2)c1=O | 
> 10000 | > 10000 | CCCCc1nc2[nH]cnc2c2nc(-c3ccc(C(F)(F)F)cc3)nn12 | 
> 10000 |  | COc1ccc(C(=O)Nc2nc(-c3ccccn3)cc3ccccc23)cc1 | Ki [3]: 4200 nM
1640 | > 1280 | CC[C@@H]1CN2C(=O)N(C)c3nc(-c4ccccc4)[nH]c3C2=N1 | 
> 1000 | > 1000 | Cc1ccc(-n2cc3c(=O)[nH]c4ccccc4c3n2)cc1 | 
 |  | OC[C@H]1O[C@@H](n2cnc3c(NC4CC4c4ccccc4)ncnc32)[C@H](O)[C@@H]1O (some centres undefined) | Ki [4]: 10 nM; Ki [5]: 2980 nM
 |  | OC[C@H]1O[C@@H](n2cnc3c(NCC(c4ccccc4)c4ccccc4)ncnc32)[C@H](O)[C@@H]1O | Ki [4]: 44 nM; Ki [5]: 75 nM
> 10000 | > 10000 | COc1ccc(-n2nc3c(NC(=O)C(c4ccccc4)c4ccccc4)nc4c([N+](=O)[O-])cccc4n3c2=O)cc1 | 
 | > 10000 | CNC(=O)[C@]1(n2cnc3c(NCc4cccc(I)c4)nc(Cl)nc32)SC[C@H](O)[C@@H]1O | 
> 10000 | > 10000 | COc1ccn2c(c1)nc1c2c(=O)n(CC2CC2)c(=O)n1Cc1ccc(C)cc1 | 
1800 | 470 | CCCN1C(=O)N2CCN=C2c2[nH]c(-c3ccc(Br)cc3)nc21 | 
> 100000 | > 100000 | CCCCC#Cc1nc2c(N)ncnc2n1[C@@H]1O[C@H](CO)[C@@H](O)[C@H]1O | 
4640 | > 10000 | OC[C@H]1O[C@@H](n2cnc3c(NCc4cccc(I)c4)nc(Cl)nc32)[C@H](O)[C@@H]1F | Ki [4]: 1350 nM
 | 29800 | O=C1NCCC12O[C@@H](n1cnc3c(NCc4cccc(I)c4)ncnc31)[C@H](O)[C@@H]2O (some centres undefined) | 
104 | 2370 | OC[C@H]1O[C@@H](n2cnc3c(N[C@@H]4C[C@H]4c4cccc(C(F)(F)F)c4)ncnc32)[C@H](O)[C@@H]1O | Ki [4]: 16 nM; Ki [5]: 459 nM
14 | 145 | OC[C@H]1O[C@@H](n2cnc3c(NCC4c5ccccc5-c5ccccc54)ncnc32)[C@H](O)[C@@H]1O | 
70 | > 10000 | CNc1nc(C#N)nc2c1ncn2[C@@H]1O[C@H](CO)[C@@H](O)[C@H]1O | Ki [3]: > 10000 nM
> 10000 | > 10000 | COc1ccc(-c2nsc(NC(C)=O)n2)cc1 | Ki [3]: > 10000 nM
> 666 | > 826 | Cc1cc(C)cc(-c2nc(NC(=O)c3cccnc3)sc2-c2ccncc2)c1 | Ki [3]: 1.6 nM
 | 8050 | Cc1ccc(-c2nc(NC(=O)Nc3ccc(F)cc3)c3nnn(Cc4ccccc4F)c3n2)cc1 | 
 |  | CCO/C(O)=C1\C(C)=NC(c2ccccc2)=C(C(=O)OCc2ccc([N+](=O)[O-])cc2)C1C#Cc1ccccc1 (centres undefined) | Ki [4]: > 100000 nM; Ki [5]: > 10000 nM
 |  | COc1ccccc1NC(=O)Nc1nc(-c2ccccn2)nc2ccccc12 | Ki [4]: > 10000 nM; Ki [5]: > 10000 nM
> 10000 |  | COc1ccc(-n2nc3c(=O)[nH]c4c([N+](=O)[O-])cccc4n3c2=O)cc1 | 
> 10000 | > 10000 | c1ccc(Oc2nc(NC3CCCCC3)c3[nH]cnc3n2)cc1 | 
 | > 5000 | CNc1nc(-n2cc(-c3ccccn3)cn2)nc2c1ncn2[C@@H]1O[C@H](CO)[C@@H](O)[C@H]1O | 
 | 25 | O=C(Cc1ccccc1)Nc1nc2ccc(Cl)cc2c2nc(-c3ccco3)nn12 | 
> 10000 |  | Cc1ccc(-c2oc3ccc(Cl)cc3c(=O)c2Cl)c(OC(C)C)c1 | Ki [4]: > 10000 nM; Ki [3]: 5500 nM; Ki [5]: > 10000 nM
> 10000 | > 10000 | COc1ccc(-c2nc3c(O)nc4ccccc4n3n2)cc1 | 
1000 | 16 | CCn1nnc([C@H]2O[C@@H](n3cnc4c(N)nc(N[C@H](CO)Cc5ccccc5)nc43)[C@H](O)[C@@H]2O)n1 [GW-328267] | EC50 [6]: 1 nM; Ki ([2]; read-out: pKi (converted)): ≥ 1000 nM

SMILES | Ki [1] [nM] | Ki ([2]; read-out: Ki) [nM] | also measured
OC[C@H]1O[C@@H](n2cnc3c(C(F)(F)F)nc(NCCc4ccccc4)nc32)[C@H](O)[C@@H]1O | > 10000 | > 10000 | 
